Laboratory results published in ChEMBL document CHEMBL1201862, “PubChem BioAssay data set” (2004).
Values joined by “and” are separate entries in the source; they are usually repeats but may differ in a detail not shown here. Equal values may be shown once. Active and inactive are the calls of the source.

Assays:
[1] = molecular target: T1, Corticotropin-releasing factor receptor 2/Corticotropin-releasing factor-binding protein (Homo sapiens, UniProt P24387+Q13324); test: Dose Response confirmation of uHTS hits for small molecule antagonists of the CRF-binding protein and CRF-R2 receptor complex.; assay type: functional; details: read-out: IC50_Mean
T1 sequence (Q13324 whole entry): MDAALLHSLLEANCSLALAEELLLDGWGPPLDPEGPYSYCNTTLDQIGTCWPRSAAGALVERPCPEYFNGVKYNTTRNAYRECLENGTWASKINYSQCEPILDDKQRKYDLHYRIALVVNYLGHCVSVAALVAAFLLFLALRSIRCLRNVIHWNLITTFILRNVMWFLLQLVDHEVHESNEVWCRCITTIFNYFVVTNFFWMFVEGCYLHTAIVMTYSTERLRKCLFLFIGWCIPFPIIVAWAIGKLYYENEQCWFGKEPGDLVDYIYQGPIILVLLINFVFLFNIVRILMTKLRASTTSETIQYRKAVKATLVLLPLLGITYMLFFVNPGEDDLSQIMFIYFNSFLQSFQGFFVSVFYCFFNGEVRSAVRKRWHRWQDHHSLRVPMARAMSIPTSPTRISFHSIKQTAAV
T1 sequence (P24387 whole entry): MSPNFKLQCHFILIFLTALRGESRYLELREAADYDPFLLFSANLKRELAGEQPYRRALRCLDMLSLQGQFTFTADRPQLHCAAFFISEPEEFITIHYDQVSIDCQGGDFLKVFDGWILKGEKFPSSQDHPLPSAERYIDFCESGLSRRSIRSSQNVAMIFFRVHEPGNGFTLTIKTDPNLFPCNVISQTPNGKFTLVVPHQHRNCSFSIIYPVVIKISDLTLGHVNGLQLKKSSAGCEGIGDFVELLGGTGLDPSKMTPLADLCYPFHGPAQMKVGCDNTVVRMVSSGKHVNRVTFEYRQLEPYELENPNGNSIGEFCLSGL

[2] = molecular target: T1, Corticotropin-releasing factor receptor 2/Corticotropin-releasing factor-binding protein; test: activators of CRF receptor 2 with binding protein – uHTS hits, confirmation (AID 602473); assay type: functional; details: read-out: EC50_Mean
[3] = molecular target: T2, Cytochrome P450 1A2 (Homo sapiens, UniProt P05177);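 further: PubChem cytochrome P450 panel assay, CYP1A2 panel member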
T2 sequence (P05177 whole entry): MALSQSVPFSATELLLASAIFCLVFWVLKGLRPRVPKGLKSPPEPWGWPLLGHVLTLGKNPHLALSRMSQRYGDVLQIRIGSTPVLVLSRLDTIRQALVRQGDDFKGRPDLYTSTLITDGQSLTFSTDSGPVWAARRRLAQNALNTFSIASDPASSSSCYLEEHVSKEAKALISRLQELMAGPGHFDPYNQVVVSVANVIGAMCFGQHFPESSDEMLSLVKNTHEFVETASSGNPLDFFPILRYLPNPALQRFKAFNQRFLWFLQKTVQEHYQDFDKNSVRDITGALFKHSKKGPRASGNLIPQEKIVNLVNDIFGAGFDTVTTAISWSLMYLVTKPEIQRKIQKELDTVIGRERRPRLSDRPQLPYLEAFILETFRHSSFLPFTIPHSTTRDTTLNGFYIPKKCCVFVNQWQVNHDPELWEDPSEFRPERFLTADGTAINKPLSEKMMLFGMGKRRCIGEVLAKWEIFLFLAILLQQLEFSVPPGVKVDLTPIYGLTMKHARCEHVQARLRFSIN

[4] = molecular target: Cytochrome P450 2D6 (Homo sapiens, UniProt P10635);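 further: CYP2D6 member of a cytochrome P450 panel assay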
[5] = test system: Streptococcus sp. 'group A'; test: Streptococcus pyogenes SK(-)GAS viability under kanamycin – luminescence, BacTiterGlo, confirmation, counter-screen for streptokinase expression inhibitor project, dose response (AID 1900); assay type: functional, organism-based
[6] = molecular target: T3, Streptokinase A (Streptococcus pyogenes serotype M1, UniProt P10520); test: viability-normalized secreted streptokinase activity reduction – plasminogen activation absorbance, OD405, dose response (AID 1914); assay type: functional, Streptococcus pyogenes M1 GAS;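 further: secreted streptokinase activity via plasminogen activation per viability signal from cell pellet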
T3 sequence (P10520 whole entry): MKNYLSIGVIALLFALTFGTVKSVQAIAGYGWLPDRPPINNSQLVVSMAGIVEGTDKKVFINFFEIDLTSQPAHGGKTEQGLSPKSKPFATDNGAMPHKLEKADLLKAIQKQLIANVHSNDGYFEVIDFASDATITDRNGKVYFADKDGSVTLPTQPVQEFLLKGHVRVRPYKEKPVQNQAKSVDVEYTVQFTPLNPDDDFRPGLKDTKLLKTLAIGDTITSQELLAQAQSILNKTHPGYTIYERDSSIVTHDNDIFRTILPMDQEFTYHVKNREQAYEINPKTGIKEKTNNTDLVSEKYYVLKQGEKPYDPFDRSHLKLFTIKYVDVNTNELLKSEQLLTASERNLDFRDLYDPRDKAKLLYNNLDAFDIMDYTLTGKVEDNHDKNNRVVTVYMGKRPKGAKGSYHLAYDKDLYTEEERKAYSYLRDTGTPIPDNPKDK

[7] = test system: Streptococcus; test: GAS UMAA2166 growth inhibition – luminescence, BacTiterGlo, counter-screen for streptokinase expression inhibitor project, dose response (AID 1915); assay type: functional, organism-based;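 further: potency for reduction of bacterial viability or growth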
[8] = molecular target: Cytochrome P450 3A4 (Homo sapiens, UniProt P08684);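 further: CYP3A4 tested as one member of a cytochrome P450 panel screen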
[9] = molecular target: Cytochrome P450 2C9 (Homo sapiens, UniProt P11712)
Cytochrome P450 2C9, sequence (P11712 whole entry): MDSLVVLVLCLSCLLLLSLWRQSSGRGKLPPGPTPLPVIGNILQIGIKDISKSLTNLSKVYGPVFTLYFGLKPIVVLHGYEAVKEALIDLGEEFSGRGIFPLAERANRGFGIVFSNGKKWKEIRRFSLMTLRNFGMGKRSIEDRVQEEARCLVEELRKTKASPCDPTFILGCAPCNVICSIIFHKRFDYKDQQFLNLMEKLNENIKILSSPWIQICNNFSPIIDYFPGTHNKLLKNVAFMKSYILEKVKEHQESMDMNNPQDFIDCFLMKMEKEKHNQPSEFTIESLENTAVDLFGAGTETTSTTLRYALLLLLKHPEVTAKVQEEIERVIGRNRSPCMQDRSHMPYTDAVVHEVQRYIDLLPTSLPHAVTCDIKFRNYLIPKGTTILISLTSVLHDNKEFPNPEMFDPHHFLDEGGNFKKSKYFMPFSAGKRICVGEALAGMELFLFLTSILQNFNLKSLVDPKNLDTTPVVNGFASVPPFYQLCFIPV

Cytochrome P450 2D6, sequence (P10635 whole entry): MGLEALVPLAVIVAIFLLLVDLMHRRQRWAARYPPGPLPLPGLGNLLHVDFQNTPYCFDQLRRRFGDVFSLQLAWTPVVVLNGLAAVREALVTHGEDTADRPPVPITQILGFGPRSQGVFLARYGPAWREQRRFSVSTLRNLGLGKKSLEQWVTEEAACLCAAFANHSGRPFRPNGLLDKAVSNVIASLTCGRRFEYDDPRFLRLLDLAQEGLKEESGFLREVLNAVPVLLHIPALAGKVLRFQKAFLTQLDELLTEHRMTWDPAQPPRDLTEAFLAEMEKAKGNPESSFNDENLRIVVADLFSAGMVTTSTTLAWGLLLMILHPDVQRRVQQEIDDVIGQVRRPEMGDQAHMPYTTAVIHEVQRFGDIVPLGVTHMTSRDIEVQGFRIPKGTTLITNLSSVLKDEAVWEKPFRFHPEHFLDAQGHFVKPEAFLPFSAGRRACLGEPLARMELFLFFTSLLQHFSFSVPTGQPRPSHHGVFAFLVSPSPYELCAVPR
Cytochrome P450 3A4, sequence (P08684 whole entry): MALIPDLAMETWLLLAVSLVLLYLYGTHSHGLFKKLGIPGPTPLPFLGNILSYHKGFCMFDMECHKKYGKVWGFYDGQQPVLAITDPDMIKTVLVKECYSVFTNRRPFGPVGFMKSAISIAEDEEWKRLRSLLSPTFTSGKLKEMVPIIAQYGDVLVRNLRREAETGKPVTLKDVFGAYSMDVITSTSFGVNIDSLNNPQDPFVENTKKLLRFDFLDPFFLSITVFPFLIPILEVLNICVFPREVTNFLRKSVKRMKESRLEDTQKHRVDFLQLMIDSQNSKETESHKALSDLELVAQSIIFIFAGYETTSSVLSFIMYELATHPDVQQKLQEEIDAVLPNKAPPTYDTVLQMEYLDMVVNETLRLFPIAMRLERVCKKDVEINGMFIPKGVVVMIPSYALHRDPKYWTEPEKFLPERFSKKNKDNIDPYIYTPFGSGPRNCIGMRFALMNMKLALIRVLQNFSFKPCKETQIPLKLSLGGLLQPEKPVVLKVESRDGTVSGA

| SMILES | IC50 [1] | EC50 [2] | EC50 ([5]; Streptococcus sp. 'group A') | EC50 [6] | EC50 ([7]; Streptococcus) | further results |
| --- | --- | --- | --- | --- | --- | --- |
| O=C(Nc1ccn(CCCNCc2ccc3c(c2)OCO3)c(=O)n1)OCc1ccccc1 | > 47.1 µM (inactive) | > 53 µM (inactive) |  |  |  |  |
| O=C(NCCN1CCN(C(=O)NC2CCCCC2)CC1)NC1CCCCC1 | > 47.1 µM (inactive) | > 53 µM (inactive) |  |  |  |  |
| O=c1c(CCc2ccccc2)nc2cnc(N3CCNCC3)nc2n1Cc1ccc(F)cc1 |  |  |  |  |  | AC50 [3]: 10 µM (inconclusive); AC50 [4]: 25.1 µM (inconclusive) |
| CCCCC(C(=O)O)C(C)CC(=O)Nc1nncs1 (stereo not drawn) | > 47.1 µM (inactive) | > 53 µM (inactive) |  |  |  |  |
| CCOc1ccccc1/C=C(/NC(=O)c1ccccc1)C(=O)NC(C)c1ccccc1 (stereo not drawn) | > 47.1 µM (inactive) | > 53 µM (inactive) |  |  |  |  |
| O=[N+]([O-])c1cccc(-c2nc(-c3ccccn3)no2)c1 | > 47.1 µM (inactive) | > 53 µM (inactive) |  |  |  |  |
| CCOC(=O)[C@@H]1[C@H]2COc3ccccc3[C@H]2N2C(=O)N(c3ccc(C(F)(F)F)cc3)C(=O)[C@]12C |  |  | 9.78 µM (active) | 17 µM (inconclusive) | > 150 µM (not active) |  |
| Cc1ccc(C(O)(C(=O)NNc2ccc3ccccc3n2)c2ccc(C)cc2)cc1 |  |  | 3.72 µM (active) | > 150 µM (not active) and 8.85 µM (active) | 12.1 µM (active) | EC50 [5]: 2.55 µM (active); EC50 [7]: 10.9 µM (active) |
| COc1ccccc1-c1nnc(NC(=O)c2ccc(S(=O)(=O)N(C)CC3CCCO3)cc2)o1 (stereo not drawn) |  |  | 19.5 µM (active) | > 150 µM (not active) | 78.9 µM (active) |  |
| CCOC(=O)c1c[nH]nc1N=C(S)Nc1ccc(Cl)cc1 | > 47.1 µM (inactive) | > 53 µM (inactive) |  |  |  |  |
| O=C(O)c1ccc(/C=N/Nc2cccc(C(F)(F)F)c2)cc1 | 43.7 µM (active) | > 53 µM (inactive) |  |  |  |  |
| CCS(=O)(=O)c1ccc(C(=O)Nc2ccccc2)c(Cl)c1Cl |  |  |  |  |  | AC50 [3]: 14.1 µM (inconclusive); AC50 [4]: 31.6 µM (inconclusive) |
| O=C(Nc1ccc(S(=O)(=O)N2CCOCC2)cc1)c1ccc(Cl)c([N+](=O)[O-])c1 | > 47.1 µM (inactive) | > 53 µM (inactive) |  |  |  |  |
| CCOc1cc(NC(=O)C2CCCCC2)c(OCC)cc1NC(=O)c1ccco1 |  |  |  |  |  | AC50 [8]: 1.12 µM (inconclusive); AC50 [9]: 11.2 µM (inconclusive); AC50 [3]: 2 µM (inconclusive) |
| O=C(Nc1cccc(-c2ccc(N3CCOCC3)nn2)c1)c1ccccc1Cl |  |  | > 150 µM (not active) | > 150 µM (not active) | > 150 µM (not active) |  |
| CCCC(=O)Nc1ccc(-c2nc3cc(C)c(C)cc3o2)c(O)c1 | > 47.1 µM (inactive) | > 53 µM (inactive) |  |  |  |  |
| COc1ccc(OC)c(NC(=O)NC2CCCc3ccccc32)c1 (stereo not drawn) |  |  | > 150 µM (not active) | > 150 µM (not active) | > 150 µM (not active) |  |
| Cc1ccc2nc(SCC(=O)c3ccc(Cl)s3)[nH]c2c1 |  |  |  | > 150 µM (not active) |  |  |
| Cc1cccc(NC2=NN=C(c3c(C)[nH]c4ccccc34)CS2)c1 |  |  | 3.91 µM (active) | > 150 µM (not active) | 6.58 µM (active) |  |
| O=C(NC1CCCC1)C1CCC(CNS(=O)(=O)c2ccc(F)cc2)CC1 (stereo not drawn) | > 47.1 µM (inactive) | > 53 µM (inactive) |  |  |  |  |
| COc1cc(NC(=O)CSc2cc(C)c3cc(C)cc(C)c3n2)c(C(=O)O)cc1OC | > 47.1 µM (inactive) | > 53 µM (inactive) |  |  |  |  |
| CNP(=O)(Oc1ccccc1)OC12CC3CC(CC(C3)C1)C2 (stereo not drawn) | > 47.1 µM (inactive) | > 53 µM (inactive) |  |  |  |  |
| COc1ccc(Nc2nc(NN)nc(Nc3ccc(OC)cc3)n2)cc1 |  |  | 11.3 µM (active) | > 150 µM (not active) | > 150 µM (not active) |  |
| CCOC(=O)c1sc2ncnc(NCC(c3cccs3)N(C)C)c2c1C (stereo not drawn) |  |  | 7.15 µM (active) | > 150 µM (not active) | 50.8 µM (active) |  |
